Columns and labels:
[1] = target: T1, MEC-4 homomeric channel (A713wt), coexpressed with MEC-2 (Caenorhabditis elegans, UniProt P24612); assay: two-electrode voltage clamp, oocytes, dose-response of current block; format: cell-based
T1 sequence (P24612 1-768): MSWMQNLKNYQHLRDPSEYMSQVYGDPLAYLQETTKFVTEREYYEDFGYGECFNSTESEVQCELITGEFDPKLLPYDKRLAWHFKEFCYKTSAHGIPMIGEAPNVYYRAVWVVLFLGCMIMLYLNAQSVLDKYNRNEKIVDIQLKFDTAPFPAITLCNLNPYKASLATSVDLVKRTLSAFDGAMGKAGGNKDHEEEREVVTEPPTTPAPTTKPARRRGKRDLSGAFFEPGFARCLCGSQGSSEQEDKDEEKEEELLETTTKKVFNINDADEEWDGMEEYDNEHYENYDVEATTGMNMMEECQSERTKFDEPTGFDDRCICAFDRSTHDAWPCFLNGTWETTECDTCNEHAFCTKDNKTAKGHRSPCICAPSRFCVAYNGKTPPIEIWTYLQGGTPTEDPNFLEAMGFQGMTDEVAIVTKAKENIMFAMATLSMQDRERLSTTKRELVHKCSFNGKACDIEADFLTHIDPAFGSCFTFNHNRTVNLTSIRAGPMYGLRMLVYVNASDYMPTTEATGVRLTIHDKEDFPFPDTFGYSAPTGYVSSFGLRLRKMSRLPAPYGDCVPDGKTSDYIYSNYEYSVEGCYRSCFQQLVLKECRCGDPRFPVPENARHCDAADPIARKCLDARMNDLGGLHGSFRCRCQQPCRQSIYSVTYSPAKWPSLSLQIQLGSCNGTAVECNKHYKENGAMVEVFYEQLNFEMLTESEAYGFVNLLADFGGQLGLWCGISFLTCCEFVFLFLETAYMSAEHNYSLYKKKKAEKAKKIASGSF
T1 sequence (Q27433 1-481 partner): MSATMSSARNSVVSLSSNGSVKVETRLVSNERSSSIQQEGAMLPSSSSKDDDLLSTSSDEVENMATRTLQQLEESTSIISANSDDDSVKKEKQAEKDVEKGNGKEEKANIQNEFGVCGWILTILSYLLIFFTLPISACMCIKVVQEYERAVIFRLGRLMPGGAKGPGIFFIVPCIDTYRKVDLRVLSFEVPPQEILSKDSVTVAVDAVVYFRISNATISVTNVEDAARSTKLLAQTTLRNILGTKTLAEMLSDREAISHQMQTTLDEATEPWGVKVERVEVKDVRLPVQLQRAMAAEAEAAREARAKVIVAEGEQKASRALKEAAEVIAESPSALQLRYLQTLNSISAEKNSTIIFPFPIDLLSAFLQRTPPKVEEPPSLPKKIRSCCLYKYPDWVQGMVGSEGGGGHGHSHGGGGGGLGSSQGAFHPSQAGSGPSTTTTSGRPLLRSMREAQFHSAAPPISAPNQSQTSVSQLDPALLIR

[2] = target: T2, MEC-4 homomeric channel (A713wt), coexpressed with MEC-2 (Caenorhabditis elegans, UniProt P24612, A713T); assay: as above; format: cell-based
T2 sequence (P24612 1-768 A713T): T1 sequence (P24612 1-768)
T2 sequence (Q27433 1-481 partner): T1 sequence (Q27433 1-481 partner)

SMILES | Ki [1] | Ki [2]
N=C(N)c1ccccc1 [benzamidine] | 108 ± 3 µM | 196 ± 40 µM
NC(=NCc1ccccc1)NC(=O)c1nc(Cl)c(N)nc1N [benzamil] | 0.15 ± 0.01 µM | 0.83 ± 0.14 µM
